Literature values in paper PMC6968775, “Assessment of contribution of BCRP to intestinal absorption of various drugs using portal‐systemic blood concentration difference model in mice” (Pharmacology Research & Perspectives, 2020).

Conditions: human; cited from earlier work

O=C(O)c1cn(C2CC2)c2cc(N3CCNCC3)c(F)cc2c1=O [ciprofloxacin, Ciprofloxacin]
oral BA in human: about 70%
